Structures are written as SMILES.

Series [1] deals with Leishmania donovani. In words: Antileishmanial activity against Leishmania donovani. In kind it is functional, organism-based.
The nature of series [2]: Cytotoxicity against human HepG2 cells incubated for 48 hrs by PI staining based flow cytometric analysis. Type of series: toxicity, cell-based. Background: A flow cytometer gives signals particle by particle.
Series [3] is described as follows: Cytotoxicity against human THP-1 cells incubated for 72 hrs by DAPI staining based analysis. Type of series: toxicity, cell-based.
Series [4] is described as follows: Metabolic stability in human liver microsomes assessed as hepatic blood flow preincubated for 10 mins and measured after 60 mins by LC-MS/MS analysis. Type of series: ADME, Microsome. To be noted: read-out: QH. Background: Liver microsomes are vesicles of endoplasmic reticulum, rich in cytochrome P450 enzymes.
A short description of series [5]: Cytotoxicity against human HepG2 cells assessed as inhibition of cell growth at 80 uM incubated for 48 hrs by PI staining based flow cytometric analysis relative to control. Type of series: toxicity.
Series [6] in a line: Metabolic stability in mouse liver microsomes assessed as half-life preincubated for 10 mins and measured after 60 mins by LC-MS/MS analysis. Type of series: ADME, Microsome.
A short description of series [7]: Stability in human plasma assessed as compound remaining measured after 2 hrs by LC-MS/MS analysis. Type of series: ADME, cell-free. To be noted: read-out: Stability.
The test system of series [8] is Leishmania donovani. In words: Antileishmanial activity against Leishmania donovani MHOM/IN/1983/AG83 axenic amastigotes assessed as inhibition of growth incubated for 48 hrs by flow cytometric analysis. Type of series: functional, organism-based. Particulars: MHOM/IN/1983/AG83, 48 h.
A short description of series [9]: Selectivity index, ratio of CC50 for cytotoxicity against human HepG2 cells to IC50 for antileishmanial activity against Leishmania donovani MHOM/IN/1983/AG83 axenic amastigotes. Type of series: toxicity, cell-based. Particulars: read-out: Ratio CC50/IC50.
Series [10] in a line: Metabolic stability in human liver microsomes assessed as half-life preincubated for 10 mins and measured after 60 mins by LC-MS/MS analysis. Type of series: ADME, Microsome.
Series [11] can be described thus: Lipophilicity, logD of compound in 1-octanol and phosphate buffer at pH 7.4 by HPLC-UV analysis. Type of series: physicochemical. To be noted: 1-octanol/phosphate buffer.
Series [12] can be described thus: Metabolic stability in mouse liver microsomes assessed as hepatic blood flow preincubated for 10 mins and measured after 60 mins by LC-MS/MS analysis. Type of series: ADME, Microsome. Particulars: read-out: QH.
Series [13] in a line: Stability in mouse plasma assessed as compound remaining measured after 2 hrs by LC-MS/MS analysis. Particulars: read-out: Stability. Type of series: ADME, cell-free.
Series [14] concerns Leishmania donovani. In words: Antileishmanial activity against Leishmania donovani MHOM/IN/1983/AG83 axenic amastigotes assessed as inhibition of growth at 20 uM incubated for 48 hrs by flow cytometric analysis relative to control. Type of series: functional.

As a reminder, the IC50 is the concentration that inhibits the measured activity by half. Take `COc1ccc(-c2cnc(NC(=O)c3cc(-c4ccccn4)n[nH]3)n2C)cc1`: the concentration for half-maximal inhibition (IC50) in series [1] amounted to 1 µM.
For orientation: CC50 means the concentration that lowers cell viability or growth by half. Higher therefore signals lower toxicity to the cells. As usually defined, the inhibition is the relative decrease from the control value, in per cent. For orientation: half-life means the time in which the quantity being followed falls by half. What is called logD is lipophilicity at a set pH, counting ionised and neutral species. A lower logD goes with lower lipophilicity. Compound `COc1cc2c(N3CCCCC3)nc(NC(=O)c3ccc(F)cc3)nc2cc1OC1CCCC1` came in with a cytotoxic concentration (CC50) at 48 h in series [2] of more than 80 µM. Moreover, the half-maximal cytotoxic concentration (CC50) at 72 h in [3] worked out at 89.5 µM. The hepatic extraction ratio at 1 h turned out to be 0.575 in series [4] and 0.494 in series [12]. Moreover, the inhibition at 48 h, 80 µM in series [5] was 10.8%. Moreover, the figures for the half-life in series [6] and in series [10] were 19.4 min and 23.8 min, respectively. The remaining at 2 h in series [7] was 61%; in [13], 44.3%. The half-maximal inhibitory concentration (IC50) in series [8] was determined as 5.43 µM. Further, the selectivity ratio in [9] is more than 15. The pH-dependent lipophilicity (logD) in series [11] amounted to 4.64.
Consider `O=C1CN(C(=O)c2cccc(Nc3ncc(-c4ccc5c(c4)OCO5)cn3)c2)CCN1`, for which the concentration for half-maximal inhibition (IC50) in series [1] was 5 µM.
`COc1ccc(-c2cnc(NC(=O)c3ccc(F)cc3)n2C)cc1`: the CC50 at 72 h in [3] was more than 50 µM. Also, the IC50 stood at 1.2 µM in series [1] and 15 µM in series [8].
In series [2], `CCCCCCCCCCCCCCCCOP(=O)([O-])OCC[N+](C)(C)C` [MILTEFOSINE] had a CC50 at 48 h of 51.6 µM. This compound came in with a CC50 at 72 h in series [3] of 25 µM. Besides, in [8], the IC50 was found to be 5.37 µM. Further, the selectivity ratio in series [9] worked out at 9.38.
Turning to `COc1cc2c(N3CCCCC3)nc(NCc3ccc(F)cc3)nc2cc1OC1CCNC1` (stereo unspecified), it took 10.1 µM to reach half-maximal cytotoxicity in [2] (CC50 at 48 h). For the same compound, the CC50 at 72 h in series [3] worked out at 6.3 µM. Also, the hepatic extraction ratio at 1 h came out at 0.21 in [4] and 0.42 in series [12]. Further, the half-life is 52.1 min in series [6] and more than 120 min in [10]. For the same compound, the remaining at 2 h was 99% in series [7] and 99.1% in [13]. Further, in series [8], the half-inhibitory concentration (IC50) was 4.66 µM. Also, the selectivity ratio in series [9] is 2.18. For the same compound, in [11], the pH-dependent lipophilicity (logD) came to 2.37.
In turn, `COc1cc2c(N3CCCCC3)nc(Nc3ccc(C(F)(F)F)cc3)nc2cc1OC1CCCC1` registered a CC50 at 72 h in [3] of more than 50 µM. The inhibition at 20 µM in series [14] is approximately 35.3%.
Consider `COc1cc2c(N3CCCCC3)nc(N(C)C)nc2cc1OC1CCCC1`, for which the CC50 at 48 h in [2] stood at 66.1 µM. The compound further gave a half-maximal cytotoxic concentration (CC50) at 72 h in series [3] of 74.3 µM. The figures for the hepatic extraction ratio at 1 h in [4] and in series [12] were 0.452 and 0.579, respectively. For the same compound, the half-life in series [6] amounted to 13.7 min; in [10], 39 min. Moreover, the values for the remaining at 2 h in [7] and in series [13] were 83.8% and 80.1%, respectively. Besides, the IC50 in series [8] is 6.85 µM. In addition, the selectivity ratio in [9] was determined as 9.65. In [11], the pH-dependent lipophilicity (logD) turned out to be 2.74.
With `COc1cc2c(N3CCCCC3)nc(NCc3cccc(F)c3)nc2cc1OC1CCCC1`, the CC50 at 72 h in series [3] was more than 3 µM. The inhibition at 20 µM in [14] is approximately 40.8%.
In [1], `Cc1cc(N2CCc3ccccc3C2)nc(Nc2ccc(S(=O)(=O)N3CCOCC3)cc2)n1` returned an IC50 of 5 µM.
`COc1cc2c(N3CCCCC3)nc(NCc3cccc(Cl)c3)nc2cc1OC1CCCC1` had a CC50 at 72 h in series [3] of 43.8 µM. Also, the inhibition at 20 µM in [14] is approximately 12%.
With `COc1cc2c(N3CCCCC3)nc(NCc3ccc(Br)cc3)nc2cc1OC1CCCC1`, the midpoint of cytotoxicity in [2], the CC50 at 48 h, lay at 28.1 µM. In addition, half-maximal cytotoxicity in series [3] (CC50 at 72 h) was put at 15.2 µM. For the same compound, the hepatic extraction ratio at 1 h in series [4] came to 0.281; in [12], 0.288. Moreover, the half-life was found to be 46.5 min in series [6] and 83.4 min in [10]. The remaining at 2 h in series [7] came out at 96.2%; in [13] it was 92.6%. The concentration for half-maximal inhibition (IC50) in [8] is 2.57 µM. The selectivity ratio in series [9] was determined as 10.9. Further, in series [11], the log distribution coefficient (logD) is 2.6.

The values are drawn from ChEMBL document CHEMBL5512633, “Hit-to-lead optimization of 2-aminoquinazolines as anti-microbial agents against Leishmania donovani” (Eur J Med Chem, 2024).
